From patent US11306054B2, “Propanediol monoacetate mononitrate” (DSM IP ASSETS B.V., priority 2017, dated 2022)

System: S. epidermidis, C. xerosis, M. furfur, P. Acnes
Assay: Antimicrobial efficacy, challenge test, overall conclusion on the strains of table 1
Format: cell-based
Conditions: conclusion from table 1; almost comparable to Phenonip
Protocol: The antimicrobial efficacy of propanediol monoacetate mononitrate (PDMAMN) is assessed in analogy to the regulatory challenge test method (NF EN ISO11930). The following test solutions were tested • 1. Inv 1: 400 mg PDMAMN in 1 ml PEG 400 were diluted with 40 mL physiological serum (0.85% NaCl) containing 7% Ethanol (˜1% of PDMAMN) • 2. Inv 2: 200 mg PDMAMN in 1 ml PEG 400 were diluted in 40 mL physiological serum (0.85% NaCl) containing 7% Ethanol (˜0.5% of PDMAMN) • 3. Inv 3: 40 mg 3-PDMAMN in 1 ml PEG 400 were diluted in 40 mL physiological serum (0.85% NaCl) containing 7% Ethanol (˜0.1% of PDMAMN) • 4. Ref 1: Physiological serum (0.85% NaCl) • 5. Ref 2: 1 mL PEG 400+40 mL physiological serum (0.85% NaCl) containing 7% Ethanol • 6. Control: 0.5% Phenonip in physiological serum (0.85% NaCl)
All test solutions were deposed in 96-deep well plates (1.6 ml/well). The wells were contaminated with the respective bacterial or the fungal strains as outlined in table 1*10^5 to 1*10^6 cfu/ml for the bacteria and 1*10^4 to 1*10^5 cfu/ml for the fungi to obtain the initial contamination as outlined in table 1, Zero. After the contamination, each well was thoroughly mixed to ensure a homogeneous distribution of the microorganism. Then each plate was incubated at 22° C. for 24 h. The counting of the (remaining) population was carried out 24 h after contamination.

CC(=O)OCCCO[N+](=O)[O-] [propanediol monoacetate mononitrate, 1,3-propanediol monoacetate mononitrate]
antimicrobial activity: excellent antimicrobial activity
